Consider twelve compounds from US4672066A, “Derivatives of 4-acetyl-3-hydroxy-2-alkyl-phenoxycarboxylic acids” (Hoffmann-La Roche Inc., priority 1985, dated 1987).

Each structure is given as a SMILES string. Like-named read-outs stand apart in the source and are kept apart here.

One assay deals with T1, TXA2 synthase (Homo sapiens, UniProt P24557).
T1 construct: microsomal fractions from human platelets as enzyme source; from tissue; host or cells: microsomal fraction of human platelets
T1 sequence (P24557 1-533): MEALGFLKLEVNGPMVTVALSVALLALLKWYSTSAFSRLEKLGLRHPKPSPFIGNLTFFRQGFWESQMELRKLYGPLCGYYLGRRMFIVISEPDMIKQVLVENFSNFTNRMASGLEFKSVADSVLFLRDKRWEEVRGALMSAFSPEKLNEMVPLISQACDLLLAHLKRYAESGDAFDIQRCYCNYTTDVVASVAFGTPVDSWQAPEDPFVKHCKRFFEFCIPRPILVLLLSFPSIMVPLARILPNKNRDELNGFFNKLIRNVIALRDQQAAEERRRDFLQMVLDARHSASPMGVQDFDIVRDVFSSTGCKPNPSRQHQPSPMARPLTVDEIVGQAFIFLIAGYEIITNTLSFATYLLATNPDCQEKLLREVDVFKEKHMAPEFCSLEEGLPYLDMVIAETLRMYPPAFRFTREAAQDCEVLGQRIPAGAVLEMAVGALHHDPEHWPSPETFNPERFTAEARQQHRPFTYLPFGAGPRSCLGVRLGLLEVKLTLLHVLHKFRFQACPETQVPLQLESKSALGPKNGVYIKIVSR
Briefly: Thromboxane Synthase Inhibition, In Vitro. The assay is classed as biochemical. The settings on record: at 1 μM (value in parentheses), human platelet microsomes. As to the method:
TXA2 synthase activity is measured by following the conversion of ^14 C-prostaglandin endoperoxide (PGH2) to ^14 C-thromboxane A2 (TXA2) using microsomal fractions from human platelets as enzyme source. In the aqueous incubation medium, the TXA2 decomposes rapidly into TXB2. The amount of TXA2 synthase is adjusted so that under the conditions of the assay approximately 80-90% of the substrate, PGH2, is converted to product in control tubes. To prepare ^14 C-PGH2, ^14 C-AA (50-60 mCi/mmole; Rose Chem.) is incubated with sheep seminal vesicular gland microsomes for 1.5 minutes at 37° C. and then the ^14 C-PGH2 is extracted with diethylether, purified on columns of Sephadex LH-20 or silicic acid, and stored in acetone at -70° C. Incubations are done as follows. Sufficient ^14 C-PGH2 yield a final substrate concentration of 10 μM (~30,000 cpm) is added to the incubation tubes and then the acetone is removed under nitrogen. […] The tubes are incubated at 22° C. for 2 minutes, the reaction is stopped and then the radioactive products and the unconverted PGH2 are extracted and analyzed by thin layer chromatography. […] The amount of ^14 C-PGH2 converted to products was used as a measure of TXA2 synthase activity. Inhibitors were tested initially at a final concentration of 100 μM. Results obtained with representative compounds of the present invention in this assay are summarized hereafter in Table I, II and III.

Assay [1] deals with T2, PAF (Canis lupus familiaris, UniProt A0A8I3NSH0).
T2 construct: followed by 2×10^7 dog platelets; from tissue; host or cells: washed platelets from citrate-treated dog blood
T2 sequence (A0A8I3NSH0 1-343): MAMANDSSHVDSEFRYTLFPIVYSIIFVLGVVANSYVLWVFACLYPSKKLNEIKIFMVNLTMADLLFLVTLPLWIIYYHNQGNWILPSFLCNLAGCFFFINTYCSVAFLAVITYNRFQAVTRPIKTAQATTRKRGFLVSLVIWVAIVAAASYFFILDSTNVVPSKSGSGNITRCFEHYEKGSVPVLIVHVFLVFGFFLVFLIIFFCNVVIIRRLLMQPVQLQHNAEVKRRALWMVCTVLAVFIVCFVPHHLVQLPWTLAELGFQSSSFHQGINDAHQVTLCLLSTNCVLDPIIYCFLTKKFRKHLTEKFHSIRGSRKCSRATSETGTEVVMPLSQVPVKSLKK
The experiment in a line: PAF Radioreceptor Binding Assay. The settings on record: dog platelets, 3H-PAF. As to the method:
Platelet rich plasma is prepared by centrifugation of citrate-treated dog blood. Acidification to pH 6.5 with 0.15 M citric acid and centrifugation for 10 minutes at 1000 xg yields a platelet pellet which is then washed by resuspension in EDTA-Phosphate Buffered Saline (PBS) and recentrifuged. The washed platelet preparation is adjusted to 2×10^7 platelets/50 μl in 0.1% BSA-PBS. […] After mixing, incubating for 10 minutes at room temperature, and centrifuging for 1 minute in a Beckman Microfuge B (8000 xg), the pellet is removed by clipping off the tip of the tube, the platelets are solubilized with 200 μl of 50% methanol, and counted in 10 ml of Aquasol. […] Results obtained with representative compounds of the present invention in this assay are summarized hereinafter in Tables I, II and III.

In the next assay the test system is SRS-A. Briefly: Guinea Pig Ileum, In Vitro (SRS-A antagonism). As to the method: The guinea pig ileum bioassay system has been described by Orange and Austen, Adv. Immunol. 10: 104-144 ([…]). A 1.5 cm segment is removed from animals weighting 300-400 g. and suspended in an organ bath containing 10 ml. of Tyrodes solution with 10^-6 M atropine sulfate and 10^-6 M pyrilamine maleate. The bath is maintained at 37° C. and aerated with a mixture of 95% oxygen and 5% carbon dioxide. The SRS-A utilized in this screen is obtained by challenging chopped lung fragments from actively sensitized guinea pigs with egg albumin, in vitro. A dose-response curve to SRS-A challenge is established for the ileum. The dose of SRS-A which gives 50% of the maximal contraction (EC50) is then used for subsequent challenge. The drug concentration which inhibits, by 50%, the SRS-A induced constriction of the guinea pig ileum is determined.

The test system of assay [2] is PAF. The experiment in a line: PAF-Induced Guinea Pig Bronchoconstriction Test. The settings on record: 1.0 mg/kg i.v., 1 min pretreatment. The assay is classed as in vivo, guinea pig (Hartley). As to the method:
Male guinea pigs (Hartley strain) weighing 300 to 500 g are anesthetized with urethane (2 g/kg) intraperitoneally and a polyethylene cannula is inserted into the jugular vein for drug administration. Tracheal pressure is recorded from a cannula inserted in the trachea and connected to a Statham pressure transducer. Propranolol (0.1 mg/kg) is administered intravenously five minutes before challenge with synthetic PAF, the animals's skeletal muscles are then paralyzed with succinylcholine (1.2 mg/kg i.v.), and the animal is respirated using a Harvard small animal respirator operating at 40 breaths/min and 2.5 cc stroke volume. Under these conditions PAF induces a dose-dependent increase in ventilatory pressure over a dose range of 0.5 to 5 pg/kg i.v. The bronchoconstrictive effect of PAF occurs at approximately a 10-fold lower dose than that obtained with LTE. For screening purposes animals are challenged with a single dose of PAF (10 pg/kg i.v.).
Test compounds are screened by either the intravenous route (1.0 mg/kg i.v., 1 min pretreatment) or oral route (100 mg/kg p.o., 2 hour pretreatment). The peak increase in ventilatory pressure (cm H2 O) is recorded for three control animals and five drug-treated animals and the percent inhibition determined.

The subject of assay [3] is PAF. Briefly: PAF-Induced Rat Skin Wheal Test. The assay is classed as in vivo, Sprague-Dawley rats. Particulars: 5 mg/kg i.v. (1 min. pretreatment). As to the method:
This test evaluates the ability of compounds to inhibit PAF-induced increases in vascular permeability in the skin of Sprague-Dawley rats. PAF induces a dose-dependent skin wheal response in this system over a dose range of 0.0001 to 1 pg/0.05 ml injection. The profound vasoactive activity of PAF is emphasized by the fact that the maximum skin wheal response is considerably greater than that obtained with LTE and an EC50 response is elicited at a 10-fold lower dose. For drug screening purposes, 5 ng of PAF is injected intradermally into anesthetized rats which had been pretreated for 30 minutes with an antihistamine (pyrilamine maleate, 50 mg/kg, i.p.) and an antiserotonin compound (methylsergide maleate, 4 mg/kg, i.p.). Immediately thereafter, the test compound is injected intravenously into the tail vein of the animal. This is followed by an intravenous injection of Evan's blue dye (0.5% in saline). Thirty minutes later the animals are sacrificed and the increase in vascular permeability induced by the migration of dye into the injection point in the skin is determined. For this purpose, rats are sacrificed by cervical dislocation, the dorsal skin is removed, the long and short axis of each […] is measured with a metric vernier caliper and the average diameter is obtained.

The subject of a further assay is LTD4. The experiment in a line: Leukotriene D4 (LTD4) Induced Arrhythmia Test. The assay is classed as in vivo, guinea pig (Hartley). The settings on record: 10 mg/kg i.v. 5 min. before LTD4; conscious guinea pigs. As to the method: Male Hartley guinea pigs are anesthetized with sodium pentobarbital and prepared for monitoring direct blood pressure and injecting drugs intravenously by catheterizing the right carotid artery and right jugular vein. Blood pressure, heart rate, and Lead II ECG are monitored in the conscious animal 24 hours later.
Intravenous administration of LTD4 (2.5 pg/kg) is associated with an increase in blood pressure lasting approximately 1-2 minutes followed by a decrease lasting approximately 5-15 minutes (FIG. 3). Abnormal beats consisting of premature ventricular contractions, ST elevation or depression, atrioventricular conduction block, or dissociated p waves begin during the rise in blood pressure; the peak effect occurs approximately 40 seconds after LTD4. The percent of abnormal beats was quantitated by determining the number present during the first 2 minutes after injection and calculating the percent increase above the control level. During the hypotensive response, the animal usually collapses during the 2nd or 3rd minute after LTD4.

Setting [4] is: Table II, read-out: TXA2 Synth. Inhib. % at (1μM).
Setting [5] is: Table II, read-out: SRS Antagonism IC50.
[6] abbreviates: Table III, read-out: TXA2 Synth. Inhib. % at (1 μM).

Regarding `CCCc1c(OCCCCCC(=O)NCCSc2cccnc2)ccc(C(C)=O)c1O`, the inhibition at 1 µM at TXA2 synthase (setting [4]) was 35%. The 50% inhibitory concentration (IC50) on PAF [1] (Table II) and with SRS-A (setting [5]) was 1000 nM each time.

Turning to `CCCc1c(OCC(O)COc2ccc3c(=O)cc(C(=O)O)oc3c2CCC)ccc(C(C)=O)c1O` (centres unmarked) [7-[3-(4-acetyl-3-hydroxy-2-propylphenoxy)-2-hydroxypropoxy]-4-oxo-8-propyl-4H-1-benzopyran-2-carboxylic acid, reference compound], the IC50 in the assay on SRS-A (standard SRS-A antagonist, read-out: IC50, SRS-A induced constriction of the guinea pig ileum) turned out to be 35 nM.

Turning to `CCCc1c(OCCCC(=O)NCCCCc2cccnc2)ccc(C(C)=O)c1O` [Example 5, 4-(4-Acetyl-3-hydroxy-2-propylphenoxy)-N-[4-(3-pyridinyl)butyl]butanamide], the inhibition at 1 µM stood at 89% on TXA2 synthase (Table I, read-out: TXA2 Syn. Inhib. (1μM)) and 89% on TXA2 synthase (setting [6]). Also, in the assay with PAF [2], the “inhibition of PAF-induced bronchoconstriction” value came to 64±12%. For the same compound, the IC50 on PAF [1] (Table I) came out at 250 nM; in the assay with SRS-A (Table I, read-out: SRS-A Antagonism IC50) it was 5000 nM.

For `CCCc1c(OCCCC#CC(=O)NCCCCc2cccnc2)ccc(C(C)=O)c1O` [Example 21, 6-(4-Acetyl-3-hydroxy-2-propylphenoxy)-N-[4-(3-pyridinyl)butyl]-2-hexynamide], in the assay with PAF [3], the “inhibition of PAF-induced rat skin wheal” value is 62±3%. The “inhibition of PAF-induced bronchoconstriction” value in the assay on PAF [2] is on record as 98±10%.

Take `CCCc1c(OCCCCCNC(=O)NCCCCc2cccnc2)ccc(C(C)=O)c1O` [Example 29, N-[5-(4-Acetyl-3-hydroxy-2-propylphenoxy)-pentyl]-N'-[4-(3-pyridinyl)butyl]urea]: the inhibition at 1 µM at TXA2 synthase (setting [6]) worked out at 89%. Moreover, the “inhibition of PAF-induced bronchoconstriction” value with PAF [2] is 68±10%. This compound also gave an IC50 on PAF [1] (Table III) of 900 nM.

With `CCCc1c(OCc2ccc(C(=O)NC(C)CCCc3cccnc3)cc2)ccc(C(C)=O)c1O` (centres unmarked) [Example 34, 4-[(4-Acetyl-3-hydroxy-2-propylphenoxy)-methyl]-N-[1-methyl-4-(3-pyridinyl)butyl]benzamide], in the assay on PAF [3], the “inhibition of PAF-induced rat skin wheal” value turned out to be 63±4%. Also, the “inhibition of PAF-induced bronchoconstriction” value with PAF [2] turned out to be 85±8%.

Regarding `CCCc1c(OCc2cccc(C(=O)NCCCCc3cccnc3)c2OCC)ccc(C(C)=O)c1O` [Example 36, 3-[(4-Acetyl-3-hydroxy-2-propylphenoxy)-methyl]-2-ethoxy-[4-(3-pyridinyl)butyl]benzamide], the “inhibition of PAF-induced bronchoconstriction” value with PAF [2] stood at 96±2%.

On to `CCCc1c(OCc2ccc(C(=O)NCCCCc3cccnc3)c(OCC)c2)ccc(C(C)=O)c1O` [Example 37, 4-[(4-Acetyl-3-hydroxy-2-propylphenoxy)-methyl]-2-ethoxy-N-[4-(3-pyridinyl)butyl]benzamide], for which the “inhibition of PAF-induced bronchoconstriction” value in the assay on PAF [2] is reported as 96±1%.

As to `CCCc1c(OCCCCCC(=O)NCCCCc2cncnc2)ccc(C(C)=O)c1O` [drawing 31], at TXA2 synthase (setting [4]), the inhibition at 1 µM came to 66%. In addition, the IC50 at PAF [1] (Table II) was found to be 550 nM; with SRS-A (setting [5]), 10000 nM.

For `CCCc1c(OCC#CCCCC(=O)NCCCCc2cccnc2)ccc(C(C)=O)c1O` [drawing 35], the figures for the IC50 on PAF [1] (Table II) and in the assay with SRS-A (setting [5]) were 600 nM and 700 nM, respectively.

Consider `CCCc1c(OCCCCCC(=O)NCCCCc2cncnc2)ccc(C(C)=O)c1O` [drawing 41], for which, in the assay with LTD4, the “Arrhy's (R/T)” value is 1/3, the “decrease in blood pressure (.dwnarw.XABP)” value is -44 ± 5 Δmm Hg and the “increase in blood pressure (.uparw.XABP)” value is recorded as 32 ± 2 Δmm Hg.

In the case of `CCCc1c(OCC#CCCCC(=O)NCCCCc2cccnc2)ccc(C(C)=O)c1O` [drawing 42], in the assay on LTD4, the “Arrhy's (R/T)” value is listed as 1/3, the “decrease in blood pressure (.dwnarw.XABP)” value was -44.5 Δmm Hg and the “increase in blood pressure (.uparw.XABP)” value is 18 ± 4 Δmm Hg.

By IC50 is commonly meant the concentration that gives 50% inhibition.
